Results published in patent publication US20070043076A1, “Substituted 2-arylmethylene-n-aryl-n'aryl-malonamides and analogs as activators of caspases and inducers of apoptosis” (priority 2003, published 2007).

What was measured:
[1] = test system: Jurkat cells; experiment: Drug induced apoptosis in Jurkat cells (propidium iodide flow cytometry); type: cell-based; conditions: 24 h
Protocol: FIGS. 1A-C are graphs showing drug induced apoptosis in Jurkat cells. FIG. 1A: control cells (DMSO treated) showing most of the cells in G1 (M2). FIG. 1B: cells treated with 0.5 μM of N,N′-bis-(3-trifluoromethyl-phenyl)-2-(4-isopropyl-benzylidene)-malonamide for 24 h showing 50% of the cells in M1 (subdiploid apoptotic cells). FIG. 1C: cells treated with 1 μM of N,N′-bis-(3-trifluoromethyl-phenyl)-2-(4-isopropyl-benzylidene)-malonamide for 24 h showing 77% of the cells in M1 (subdiploid apoptotic cells).
(§1) Jurkat cells were incubated with N,N′-bis-(3-trifluoromethyl-phenyl)-2-(4-isopropyl-benzylidene)-malonamide (0.5 μM and 1 μM) for 24 h under normal growth conditions; control cultures were treated with DMSO vehicle. Cells were harvested at 1200 rpm and washed twice with 5 mM EDTA/PBS. Cells were then resuspended in 300 μl EDTA/PBS and […] of 100% ethanol, vortexed and incubated at room temperature for 1 h. Samples were spun down at 12000 rpm for 5 min and the supernatant was removed. A solution containing 100 μg/ml of propidium iodide and 1 mg/ml of RNAse A (fresh) was added to the samples and incubated for 1 h at room temperature. Samples were then transferred to 12×75 mm polystyrene tubes and analysed on a flow cytometer. All flow cytometry analyses were performed on FACScalibur (Becton Dickinson) using Cell Quest analysis software.

[2] = test system: ZR-75-1; experiment: Caspase cascade activation (Ac-DEVD-R110 fluorogenic substrate) in ZR-75-1 cells; type: cell-based, Human; conditions: 24 h incubation; for Caspase Activity Ratio: ratio of net RFU to that of control samples; for EC50: Homo sapiens, 0.16 to 10 μM final, read-out: Caspase potency EC50
Protocol: (§2) Human breast cancer cell lines T-47D and ZR-75-1 were grown according to media component mixtures designated by American Type Culture Collection +10% FCS (Invitrogen Corporation), in a 5% CO2-95% humidity incubator at 37° C. T-47D and ZR-75-1 cells were maintained at a cell density between 30 and 80% confluency and for HL-60 at a cell density of 0.1 to 0.6×10^6 cells/mL. Cells were harvested at 600×g and resuspended at 0.65×10^6 cells/mL into appropriate media +10% FCS. An aliquot of 45 μL of cells was added to a well of a 96-well microtiter plate containing 5 μL of a 10% DMSO in RPMI-1640 media solution containing 1.6 to 100 μM of N,N′-bis-(3-trifluoromethyl-phenyl)-2-(4-isopropyl-benzylidene)-malonamide or other test compound (0.16 to 10 μM final). An aliquot of 45 μL of cells was added to a well of a 96-well microtiter plate containing 5 μL of a 10% DMSO in RPMI-1640 media solution without test compound as the control sample. The samples were mixed by agitation and then incubated at 37° C. for 24 h in a 5% CO2-95% humidity incubator. After incubation, the samples were removed from the incubator and […] of a solution containing 20 μM of N-(Ac-DEVD)-N′-ethoxycarbonyl-R110 fluorogenic substrate (SEQ ID NO:1) (Cytovia, Inc.; U.S. Pat. No. 6,335,429), 20% sucrose (Sigma), 20 mM DTT (Sigma), 200 mM NaCl (Sigma), 40 mM Na PIPES buffer pH 7.2 (Sigma), and 500 μg/mL lysolecithin (Calbiochem) was added. The samples were mixed by agitation and incubated at room temperature. Using a fluorescent plate reader (Model 1420 Wallac Instruments), an initial reading (T=0) was made approximately 1-2 min after addition of the substrate solution, employing excitation at 485 nm and emission at 530 nm, to determine the background fluorescence of the control sample. After approximately 3 h of incubation, the samples were read for fluorescence as above (T=3 h).
(§3) The relative Fluorescence Unit values (RFU) were used to calculate the sample readings as follows: RFU(T=3h)−Control RFU(T=0)=Net RFU(T=3h)
(§4) The activity of caspase cascade activation was determined by the ratio of the net RFU value for N,N′-bis-(3-trifluoromethyl-phenyl)-2-(4-isopropyl-benzylidene)-malonamide to that of control samples. The EC50 (nM) was determined by a sigmoidal dose-response calculation (Prism 2.0, GraphPad Software Inc.).

[3] = test system: DLD-1; experiment: Inhibition of cell proliferation (GI50, CellTiter 96 AQueous One) in DLD-1 cells; type: cell-based; conditions: Homo sapiens, 48 h incubation, read-out: GI50 (dose for 50% inhibition of cell proliferation)
Protocol: (§5) T-47D and DLD-1 cells were grown and harvested as in Example 105. An aliquot of 90 μL of cells (2.2×10^4 cells/mL) was added to a well of a 96-well microtiter plate containing 10 μl of a 10% DMSO in RPMI-1640 media solution containing 1 nM to 100 μM of N,N′-bis-(3-trifluoromethyl-phenyl)-2-(4-isopropyl-benzylidene)-malonamide (0.1 nM to 10 μM final). An aliquot of 90 μL of cells was added to a well of a 96-well microtiter plate containing 10 μL of a 10% DMSO in RPMI-1640 media solution without compound as the control sample for maximal cell proliferation (AMax). The samples were mixed by agitation and then incubated at 37° C. for 48 h in a 5% CO2-95% humidity incubator. After incubation, the samples were removed from the incubator and 20 μL of CellTiter 96 AQUEOUS One Solution Cell Proliferation™ reagent (Promega) was added. The samples were mixed by agitation and incubated at 37° C. for 2-4 h in a 5% CO2-95% humidity incubator. Using an absorbance plate reader (Model 1420 Wallac Instruments), an initial reading (T=0) was made approximately 1-2 min after addition of the solution, employing absorbance at 490 nm. This determines the possible background absorbance of the test compounds. No absorbance for N,N′-bis-(3-trifluoromethyl-phenyl)-2-(4-isopropyl-benzylidene)-malonamide was found at 490 nm. After the 2-4 h incubation, the samples were read for absorbance as above (ATest).
(§6) Baseline for GI50 (dose for 50% inhibition of cell proliferation) of initial cell numbers were determined by adding an aliquot of 90 μL of cells or 90 μL of media, respectively, to wells of a 96-well microtiter plate containing 10 μL of a 10% DMSO in RPMI-1640 media solution. The samples were mixed by agitation and then incubated at 37° C. for 0.5 h in a 5% CO2-95% humidity incubator. After incubation, the samples were removed from the incubator and 20 μL of CellTiter 96 AQUEOUS One Solution Cell Proliferation™ reagent (Promega) was added. The samples were mixed by agitation and incubated at 37° C. for 2-4 h in a 5% CO2-95% humidity incubator. Absorbance was read as above, (AStart) defining absorbance for initial cell number used as baseline in GI50 determinations.
(§7) GI50 (dose for 50% inhibition of cell proliferation) is the concentration where [(ATest−AStart)/(AMax−AStart)]=0.5.

[4] = test system: T-47D; experiment: Inhibition of cell proliferation (GI50, CellTiter 96 AQueous One) in T-47D cells; type: cell-based; conditions: Homo sapiens, T47D, 48 h incubation, read-out: GI50 (dose for 50% inhibition of cell proliferation)
Protocol: as §5, §6, §7

[5] = test system: T-47D; experiment: Caspase cascade activation (Ac-DEVD-R110 fluorogenic substrate) in T-47D cells; type: cell-based, Human; conditions: 24 h incubation; for Caspase Activity Ratio: ratio of net RFU to that of control samples; for EC50: Homo sapiens, T47D, 0.16 to 10 μM final, read-out: Caspase potency EC50
Protocol: as §2, §3, §4

[6] = test system: T47D cells; experiment: Drug induced apoptosis in T47D cells (propidium iodide flow cytometry); type: cell-based, Human; conditions: 1.7 μM, 24 h
Protocol: FIGS. 2A-B are graphs showing drug induced apoptosis in T47D cells. FIG. 2A: control cells (DMSO treated) showing most of the cells in G1 (M2). FIG. 2B: cells treated with 1.7 μM of N,N′-bis-(3-trifluoromethyl-phenyl)-2-(4-isopropyl-benzylidene)-malonamide for 24 h showing 88% of the cells in M1 (subdiploid apoptotic cells).
as §1
T47D breast cancer cell line was maintained and harvested as described in Example 105. […] Cells were harvested and treated with propidium iodide and analysed on a flow cytometer as described in Example 107.

Row | SMILES | induction of apoptosis (in words) ([1]; 0.5 μM and 1 μM) | cells in M1 (subdiploid apoptotic cells) ([1]; 0.5 μM) [%] | cells in M1 (subdiploid apoptotic cells) ([1]; 1 μM) [%] | Caspase Activity Ratio [2] | EC50 [2] [nM] | GI50 [3] [nM] | GI50 [4] [nM] | Caspase Activity Ratio [5] | EC50 [5] [nM] | cells in M1 (subdiploid apoptotic cells) [6] [%] | induction of apoptosis (in words) [6]
1 | CC(C)c1ccc(C=C(C(=O)Nc2cccc(C(F)(F)F)c2)C(=O)Nc2cccc(C(F)(F)F)c2)cc1 [Example 3, N,N′-Bis-(3-trifluoromethyl-phenyl)-2-(4-isopropyl-benzylidene)-malonamide] | induces massive apoptosis | 50 | 77 | 17 | 1400 | 200 | 180 | 15 | 867 | 88 | induces massive apoptosis
2 | O=C(Nc1cccc(C(F)(F)F)c1)C(=Cc1ccc(Cl)cc1Cl)C(=O)Nc1cccc(C(F)(F)F)c1 [Example 2, N,N′-Bis-(3-trifluoromethyl-phenyl)-2-(2,4-dichloro-benzylidene)-malonamide] | – | – | – | 18 | 906 | 200 | 150 | 16 | 647 | – | –
